Reference: patent publication US9505794B2, “Ruthenium (II) complexes, preparation and uses thereof” (priority 2014, dated 2016)

What was measured:
[1] = Photostability under continuous irradiation by confocal microscopy; format: physicochemical; details: for reduction of fluorescence intensity upon irradiation: fixed MCF-7, exposure at 442 nm for 300 sec
Source text: In yet another embodiment, photostability of these two complexes 1 & 2 compared with that for DAPI dye by using confocal microscopy.

calf-thymus DNA (CT-DNA) = assay: Isothermal titration calorimetry (ITC) binding to CT-DNA; details: for ΔG / ΔH / −TΔS: Tris-HCl buffer pH=7.4, 25° C; for N [bp]: one set of site binding model
Method: Relative binding affinity of complexes 1, 2, and 3 towards calf-thymus DNA (CT-DNA) were evaluated using isothermal titration calorimetry (ITC) (FIG. 20). Association constants and thermodynamic parameters (Table 4) clearly reveal that the binding affinities for complexes 1 and 2
ITC experiments were performed with the Microcal iTC200. CT-DNA (0.1 mmol) and complexes 1 (5 mmol), 2 (5 mmol) and 3 (5 mmol) were used for these experiments. All titrations were conducted in Tris-HCl buffer (5 mmol Tris and 25 mmol NaCl), pH=7.4 at 25° C. In each titration CT-DNA was loaded into the cell and 1 or 2 or 3 were taken into the syringe. Aliquot of 2 μL of compounds were injected into the cell containing DNA. In each experiment, the raw isotherms were corrected for heat of dilution by subtracting the isotherms representing the compounds injected into the Tris-HCl buffer. The resulting isotherms were fitted with the one set of site binding model provided with Microcal iTC200. (Refer FIG. 21)

[2] = Partition coefficient (log P), shake-flask method, n-octanol/water; details: for LogP: values of Table 2; for log P: values of text and unnumbered table
Method: Partition coefficients (log P) for these three complexes were evaluated by shake-flask method and these were correlated to the lipophilicity of respective complexes.
n-Octanol saturated water and water saturated octanol was obtained using Millipore water stirred with n-octanol for 24 h before the two layers were separated by centrifugation (3000 rpm, 5 min). The chloride salts of complex 1 and 2 were dissolved in n-octanol saturated water giving concentrations ranging from 0.5 to 3.0 mmol. This was then mixed with water saturated n-octanol in the ratio of 1:1 (v/v). Resulting solvent mixtures were vertexed for 30 min at room temperature, and then were subjected to centrifugation (3000 rpm, 5 min) to get two distinct separate layers. Samples from each layer were obtained using a fine-gauge needle and the absorbance of respective complex in each phase determined using UV-Vis spectroscopy.

MCF-7 cell line = assay: Cellular uptake and quantification of Ru by MP-AES; format: cell-based; details: MCF-7, 50 μM, 24 h, 37° C
Method: Cellular accumulation studies for complexes 1, 2, and 3 were conducted on the MCF-7 cell line. Briefly, 2.5×10^5-1×10^6 cells were seeded on a petridish; the metal complexes were then added to give final concentrations of 50 μM and allowed a further 24 h of drug exposure at 37° C. After this time, cells were treated with trypsin, counted using haemocytometer, and cells collected were digested overnight in concentrated nitric acid (73%) at 60° C.; Samples were made up to exactly 10 mL using deionized water and the amount of ruthenium taken up by the cells was estimated by MP-AES (Microwave Plasma Atomic Emission Spectroscopy), using an Agilent Technologies instrument (Model No: 4100 MP-AES). The solvent used for all MP-AES experiments was double deionized water (DDW). The concentrations used for the calibration curve were in all cases 0, 5, 7.5, 10 ppm. The isotope detected was ^101Ru; readings were made in duplicate (N2 gas mode).

live MCF-7 cells = assay: CLSM imaging of live cells, co-staining with ER-Tracker Green; format: cell-based; details: live MCF-7, 50 μM, 37° C
Method: In the light of the negligible toxicity towards MCF-7 cells, the application of the above complexes as potential as imaging agents was explored in live MCF-7 cells by incubating the cells separately with 50 μM of 1, 2, and 3 at 37° C.

PFA fixed MCF-7 cells = assay: CLSM imaging of fixed cells, co-staining with DAPI; format: cell-based; details: fixed MCF-7, excitation 442 nm, emission 620 nm
Method: In another embodiment, co-staining experiments were performed with DAPI, a commonly used commercial nuclear staining agent.
To ensure that DAPI had no influence in internalization of the complexes 1 and 2, identical experiments with fixed MCF-7 cells in absence of DAPI were performed (FIG. 22 c) and a distinct red emission were observed from the nucleus. Luminescence intensity profile plots confirmed that the emission was actually from the nucleus.
MCF-7 and HEK293T cells were cultured in DMEM respectively supplemented with 10% FBS and penicillin/streptomycin. Cell lines were maintained at 37° C. in an atmosphere of 5% CO2 and routinely sub-cultured. For CLSM, cell cultures were grown on 6 well plate with coverslips, after 24 hrs of incubation the cells were treated with solutions of 1 or 2 (20 μM,) in serum containing media and incubated for 2 h. After incubation media was removed and cells were washed with 1×PBS buffer and fixed them using paraformaldehyde and stained for confocal microscopy. Nuclear staining was performed by using DAPI. Olympus Fluoview was used to observe the compound staining Compound was excited at 443 nm and emission was detected at 620 nm wavelength.
DAPI was excited by using a 405 nm diode laser and emission detected with a 420-480 nm long-pass band-filter. (FIG. 14, 15, 16, 17)

[3] = test system: nuclear DNA of fixed MCF-7 cells; assay: DNase I / RNase A digest experiments (CLSM); format: cell-based; details: fixed MCF-7 cells pre-treated with DNase I
Method: Further, in order to check the preferential binding of these two reagents to nuclear DNA, deoxyribonuclease (DNase I) and ribonuclease (RNase A) digest experiments were carried out. DNase I is an enzyme that catalyzes the hydrolytic cleavage of phosphodiester linkages in the DNA and RNase A is a type of nuclease that catalyzes the degradation of RNA into smaller components. DAPI was used for control experiments.

[4] = Fluorescence quantum yield and luminescence lifetime (TCSPC) in water; format: physicochemical; details: pure aqueous medium; for τ (luminescence lifetime): excitation 443 nm; for Φf (fluorescence quantum yield): reference Ru(bpy)3Cl2
Source text: UV-Vis spectra were obtained by using a Cary 500 scan UV-Vis-NIR spectrometer. Room temperature emission spectrum was obtained using an Edinburgh instrument Xe-900 spectro fluorometer. The fluorescence quantum yields, Φf were estimated by using equation 1 in water medium using the integrated emission intensity of Ru(bpy)3Cl2 (Φf=0.042 in H2O at RT) as a reference. (FIG. 20)
Luminescent lifetimes were obtained using a Horiba TCSPC (Time Correlated Single Photon Counting) system exciting at 443 nm. 10,000 counts were collected for each lifetime measurement and all measurements were performed in triplicate using DAS software to confirm results. The calculation of the luminescent lifetimes was performed by fitting an exponential decay function to each decay plot to extract the lifetime information using DAS6 fluorescence decay analysis software (FIG. 2).

fluorescence intensity upon continuous irradiation ([1]; fixed MCF-7, at 359 nm for 300 sec) | Molecule | ΔG (calf-thymus DNA (CT-DNA)) [Kcal/M^−1] | ΔH (calf-thymus DNA (CT-DNA)) [Kcal/M^−1] | N [bp] (calf-thymus DNA (CT-DNA)) | LogP [2] | log P [2] | Ru accumulation (MCF-7 cell line) [ppm/10^6 cells] | intracellular localisation of emission in live cells (live MCF-7 cells) | staining of fixed cells (PFA fixed MCF-7 cells) | intracellular fluorescence intensity from the nucleus after DNase I pre-treatment [3] | reduction of fluorescence intensity upon irradiation [1] [%] | τ (luminescence lifetime) [4] [ns] | Φf (fluorescence quantum yield) [4] | water solubility (Water solubility) | −TΔS (calf-thymus DNA (CT-DNA)) [Kcal/M^−1l] | extent of cellular uptake (live MCF-7 cells)
drastically reduced | N=C(N)c1ccc(-c2cc3ccc(C(=N)N)cc3[nH]2)cc1 [DAPI, 4′,6-diamidino-2-phenylindole, reference compound] | – | – | – | – | – | – | – | – | – | – | – | – | – | – | –
– | {bis-(2,2′-bpy)-(5-fluoro-1-((4′-methyl-[2,2′-bipyridin]-4-yl)methyl)pyrimidine-2,4(1H,3H)-dione)}ruthenium(II) dichloride [Complex 1] | −6.68 ± 0.41 | −35.5 ± 0.41 | 0.61 ± 0.0 | −0.99 ± 0.05 | −0.85 | 1.5 | exactly superimposed with those for ER-Tracker™ Green | as efficient as DAPI in staining the nucleus | significantly reduced | ~20 | 336 | 0.048 | highly water soluble | – | –
– | {bis-(2,2′-bpy)-(1-((4′-methyl-[2,2′-bipyridin]-4-yl)methyl)pyrimidine-2,4(1H,3H)-dione)}ruthenium(II) dichloride [Complex 2] | −6.00 ± 0.02 | 1.47 ± 0.02 | 0.98 ± 0.01 | −1.59 ± 0.09 | – | 2.3 | exactly superimposed with those for ER-Tracker™ Green | as efficient as DAPI in staining the nucleus | significantly reduced | ~20 | 323 | 0.050 | highly water soluble | 7.47 | –
– | Cc1ccnc(-c2cc(C)ccn2)c1.F[P-](F)(F)(F)(F)F.F[P-](F)(F)(F)(F)F.[Ru+2].c1ccc(-c2ccccn2)nc1.c1ccc(-c2ccccn2)nc1 [Complex 3, [Ru(bpy)2(L3)]2+, reference compound] | −4.52 ± 0.25 | 0.51 ± 0.25 | 0.354 ± 0.14 | – | −1.1 | 0.8 | did not show any such specificity towards lipid dense regions | non-specific staining of cellular compartments | – | – | 321 | 0.05 | – | 5.03 | less as compared to the complexes 1 and 2
